Data on 16 compounds can be found in US9895324B2, “Halogenated diarylacetylenes and methods of treating cancer” (UNIVERSITY OF KENTUCKY RESEARCH FOUNDATION, priority 2014, dated 2018).

By melting point is commonly meant the temperature of the solid-liquid transition.

In one data set the test system is LS174T cells. The data set is described as follows: Cell proliferation assay, LS174T colon cancer cells. The class given is cell-based. How it is done:
Cell Proliferation Assay.
LS174T cells were grown in RPMI medium (Mediatech) supplemented with 5% fetal bovine serum and 1% penicillin/streptomycin. For cell proliferation assays, 3×10^4 cells/well growing in 12-well plates were treated with DMSO or inhibitors. The cell numbers and viability were analyzed by Vi-Cell Cell Viability Analyzer after 4 days. The IC50 values were calculated with GraphPad Prim 5.

In data set [1] the target is catalytic subunit of methionine S-adenosyltransferase-2 (MAT-2) (Homo sapiens, UniProt P31153). The note with it: cited from earlier work.
The target in the next data set is MAT2 (Homo sapiens, UniProt P31153). The data set is described as follows: MAT2A inhibition assay. The class given is biochemical. To be noted: compared with stilbene 1. An excerpt:
We reported previously that stilbenes repressed colon cancer cell proliferation by inhibiting c-myc expression and inducing the cell cycle inhibitor, p21(Wif1/Cip1). See Zhang et al. J Med Chem 2011: 54:1288-1297. The similarity of the diarylacetylenes to the stilbenes also prompted an in silico modeling study of the binding of (E)-4-(2′,6′-difluorostyryl)-N,N-dimethylaniline (1) and 4((2,6-difluorophenyl)ethynyl)-N,N-dimethylaniline (2m). It was believed that para-oriented amino-substituents, such as the N-methylamino and N,N-dimethylamino groups, were associated with potent MAT2A inhibition. […] Variability in the MAT2A inhibition assay made the measurement of c-myc inhibition a preferred analytical tool for assessing the potency of diarylacetylenes.

[2] abbreviates: Homo sapiens, LS174T, 96 h, 4 days, read-out: Inhibition of LS174T Cell Proliferation IC50.
Where [3] appears, read: 4 days, read-out: Inhibition of LS174T Cell Proliferation IC50.

Each structure is given as a SMILES string. Entries after “also recorded” stand apart in the source; their conditions may differ. Like-named read-outs stand apart in the source and are kept apart here.

MAT2, sequence (P31153 whole entry): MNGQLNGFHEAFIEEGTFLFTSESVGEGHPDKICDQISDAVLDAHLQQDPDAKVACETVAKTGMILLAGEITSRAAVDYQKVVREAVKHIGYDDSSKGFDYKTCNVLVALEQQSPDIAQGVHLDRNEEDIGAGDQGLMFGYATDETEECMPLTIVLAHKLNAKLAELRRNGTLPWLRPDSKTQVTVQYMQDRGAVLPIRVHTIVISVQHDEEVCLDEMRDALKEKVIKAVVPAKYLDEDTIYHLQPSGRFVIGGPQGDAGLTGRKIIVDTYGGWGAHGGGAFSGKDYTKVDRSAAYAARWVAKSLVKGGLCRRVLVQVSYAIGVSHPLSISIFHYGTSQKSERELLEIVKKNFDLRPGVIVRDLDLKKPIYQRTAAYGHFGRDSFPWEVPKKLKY
catalytic subunit of methionine S-adenosyltransferase-2 (MAT-2), sequence (P31153 whole entry): as above

`CN(C)c1ccc(/C=C/c2c(F)cccc2F)cc1` [Compound 1, (E)-4-(2′,6′-difluorostyryl)-N,N-dimethylaniline, reference compound]: in the data set on LS174T cells (setting [2]), the IC50 amounted to 59 ± 7.5 nM. Further, in data set [1], the Molecular target result is listed as “targeted exclusively the catalytic subunit of methionine S-adenosyltransferase-2 (MAT-2)”.
Compound `Nc1ccc(C#Cc2c(F)cccc2F)cc1` [Compound 2a, 4-((2,6-Difluorophenyl)ethynyl)aniline] registered a melting point of 104 to 105 °C. In addition, in the data set with LS174T cells (setting [2]), the IC50 came to 55 ± 7.8 nM. Also, in the data set with LS174T cells (Homo sapiens, LS174T, read-out: IC50 (inhibition of LS174T cell proliferation)), the IC50 is 55 ± 7.8 nM.
`CNc1ccc(C#Cc2c(F)cccc2F)cc1` [Compound 2b, 4-((2,6-Difluorophenyl)ethynyl)-N-methylaniline] yielded a melting point of 69 to 70 °C.
`CN(C)c1ccc(C#Cc2ccccc2)cc1` [Compound 2c, N,N-Dimethyl-4-(phenylethynyl)aniline] gave a melting point of 104 to 106 °C. The “Potency as inhibitor of LS174T cell proliferation (in words)” value (from here on “Potency as inhibitor”) in the data set with LS174T cells is listed as “very low potency”. The IC50 in the data set on LS174T cells (setting [2]) was above 3000 nM.
In turn, `CN(C)c1ccc(C#Cc2ccccc2F)cc1` [Compound 2d, 4-((2-Fluorophenyl)ethynyl)-N,N-dimethylaniline] showed a melting point of 94 to 96 °C. Also, the IC50 in the data set on LS174T cells (setting [3]) stood at 39 ± 6 nM. Further, the IC50 with LS174T cells (setting [2]) is below 50 nM.
`CN(C)c1ccc(C#Cc2ccccc2Cl)cc1` [Compound 2e, 4-((2-Chlorophenyl)ethynyl)-N,N-dimethylaniline]: the melting point lay in the range of 108 to 110 °C. In addition, the IC50 in the data set with LS174T cells (setting [3]) stood at 31 ± 3.1 nM. Moreover, in the data set with LS174T cells (setting [2]), the IC50 was below 50 nM.
Turning to `CN(C)c1ccc(C#Cc2cccc(F)c2)cc1` [Compound 2f, 4-((3-Fluorophenyl)ethynyl)-N,N-dimethylaniline], the melting point lay in the range of 99 to 100 °C. Further, the “Potency as inhibitor” value in the data set with LS174T cells was “significantly less active”. Also, the IC50 with LS174T cells (setting [2]) was above 3000 nM.
In the same order, the values of `CN(C)c1ccc(C#Cc2ccc(F)cc2)cc1` [Compound 2g, 4-((4-Fluorophenyl)ethynyl)-N,N-dimethylaniline] are 132 to 134 °C, “very low potency; also recorded: significantly less active” and above 3000 nM.
With `CN(C)c1ccc(C#Cc2cccc(F)c2F)cc1` [Compound 2h, 4-((2,3-Difluorophenyl)ethynyl)-N,N-dimethylaniline], the melting point was in the range of 104 to 106 °C. Further, the IC50 with LS174T cells (setting [2]) stood at 119 ± 4.6 nM.
For `CN(C)c1ccc(C#Cc2ccc(F)cc2F)cc1` [Compound 2i, 4-((2,4-Difluorophenyl)ethynyl)-N,N-dimethylaniline], in that order: 116 to 118 °C and 56 ± 8.1 nM.
`CN(C)c1ccc(C#Cc2ccc(F)c(F)c2)cc1` [Compound 2j, 4-((3,4-Difluorophenyl)ethynyl)-N,N-dimethylaniline] gave a melting point of 100 to 101 °C. Further, the “Potency as inhibitor” value in the data set on LS174T cells is given as “significantly less active”. Besides, the IC50 in the data set with LS174T cells (setting [2]) was above 3000 nM.
As to `CN(C)c1ccc(C#Cc2cc(F)cc(F)c2)cc1` [Compound 2k, 4-((3,5-Difluorophenyl)ethynyl)-N,N-dimethylaniline], the melting point was 72 to 74 °C. Also, in the data set on LS174T cells, the “Potency as inhibitor” value was “significantly less active”. Moreover, the IC50 in the data set with LS174T cells (setting [2]) was above 3000 nM.
Compound `CN(C)c1ccc(C#Cc2cc(F)ccc2F)cc1` [Compound 2l, 4-((2,5-Difluorophenyl)ethynyl)-N,N-dimethylaniline] displayed a melting point of 106 to 107 °C. In the data set with LS174T cells (setting [2]), the IC50 turned out to be 55 ± 6 nM.
On to `CN(C)c1ccc(C#Cc2c(F)cccc2F)cc1` [Compound 2m, 4-((2,6-Difluorophenyl)ethynyl)-N,N-dimethylaniline], for which the “MAT2 inhibition (in words, data not shown)” value at MAT2 is on record as “inhibited MAT2 at concentrations comparable to that of the stilbene 1”.
`CN(C)c1ccc(C#Cc2c(F)cccc2Cl)cc1` [Compound 2n, 4-((2-Chloro-6-fluorophenyl)ethynyl)-N,N-dimethylaniline] displayed a melting point of 86 to 88 °C.
Consider `CN(C)c1ccc(C#Cc2c(Cl)cccc2Cl)cc1` [Compound 2o, 4-((2,6-Dichlorophenyl)ethynyl)-N,N-dimethylaniline], for which the melting point lay in the range of 96 to 98 °C. Further, the IC50 in the data set with LS174T cells (setting [2]) came out at 52 ± 7.1 nM.
